Paper PMC6269498, “Increased activity of MdFRK2, a high-affinity fructokinase, leads to upregulation of sorbitol metabolism and downregulation of sucrose metabolism in apple leaves” (Horticulture Research, 2018)

Test system: MdFRK1
Experiment: coupled spectrophotometric assay (phosphoglucoisomerase / G6P dehydrogenase), […] nm
Format: biochemical, Malus domestica
Settings: 50 mM Tris-HCl pH 8.0, 4 mM MgCl2, 2.5 mM ATP; substrate inhibition above 2 mM fructose

Structure (SMILES): OCC1(O)OC[C@@H](O)[C@@H](O)[C@@H]1O (stereo partly shown) [fructose]
- Km: 620 µM
